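Test compounds were applied to cells in 96-well plates for 48 hours at 5 doses. GI50 is the concentration that inhibits growth by half. The concentration for full growth arrest is given as TGI.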
Tests used:
Assay in all cases: DTP human tumour cell line panel, 48 h
U251 CNS = test system: U251 CNS
HL-60(TB) leukemia = test system: HL-60(TB) leukemia
CCRF-CEM leukemia = test system: CCRF-CEM leukemia
UACC-257 melanoma = test system: UACC-257 melanoma
HOP-62 NSCLC = test system: HOP-62 NSCLC
HCC-2998 colon = test system: HCC-2998 colon
SNB-19 CNS = test system: SNB-19 CNS
TK-10 renal = test system: TK-10 renal
RXF 393 renal = test system: RXF 393 renal
SK-MEL-5 melanoma = test system: SK-MEL-5 melanoma
A498 renal = test system: A498 renal
HOP-92 NSCLC = test system: HOP-92 NSCLC
786-0 renal = test system: 786-0 renal
MDA-MB-435 = test system: MDA-MB-435
MCF7 breast = test system: MCF7 breast
DU-145 prostate = test system: DU-145 prostate
NCI/ADR-RES ovarian = test system: NCI/ADR-RES ovarian
SK-MEL-28 melanoma = test system: SK-MEL-28 melanoma
UO-31 renal = test system: UO-31 renal
T-47D breast = test system: T-47D breast
MOLT-4 leukemia = test system: MOLT-4 leukemia
IGROV1 ovarian = test system: IGROV1 ovarian
MDA-MB-231 breast = test system: MDA-MB-231 breast
SK-MEL-2 melanoma = test system: SK-MEL-2 melanoma
MALME-3M melanoma = test system: MALME-3M melanoma
ACHN renal = test system: ACHN renal
LOX IMVI melanoma = test system: LOX IMVI melanoma
BT-549 breast = test system: BT-549 breast
HT29 colon = test system: HT29 colon
SN12C renal = test system: SN12C renal
NCI-H522 lung = test system: NCI-H522 lung
NCI-H23 lung = test system: NCI-H23 lung
SW-620 colon = test system: SW-620 colon
SF-539 CNS = test system: SF-539 CNS
HS 578T breast = test system: HS 578T breast
OVCAR-3 ovarian = test system: OVCAR-3 ovarian
RPMI-8226 leukemia = test system: RPMI-8226 leukemia
CAKI-1 renal = test system: CAKI-1 renal
UACC-62 melanoma = test system: UACC-62 melanoma
HCT-116 colon = test system: HCT-116 colon
SK-OV-3 ovarian = test system: SK-OV-3 ovarian
COLO 205 colon = test system: COLO 205 colon
OVCAR-8 ovarian = test system: OVCAR-8 ovarian
NCI-H460 lung = test system: NCI-H460 lung
OVCAR-5 ovarian = test system: OVCAR-5 ovarian
SF-268 CNS = test system: SF-268 CNS
SF-295 CNS = test system: SF-295 CNS
EKVX NSCLC = test system: EKVX NSCLC
KM12 colon = test system: KM12 colon
OVCAR-4 ovarian = test system: OVCAR-4 ovarian
SR leukemia = test system: SR leukemia
HCT-15 colon = test system: HCT-15 colon
PC-3 prostate = test system: PC-3 prostate
SNB-75 CNS = test system: SNB-75 CNS
NCI-H226 lung = test system: NCI-H226 lung
A549 NSCLC = test system: A549 NSCLC

Q: `C[C@H]1CN(C2COC2)CCN1c1ccc(Nc2cc(-c3ccnc(N4CCn5c(cc6c5CC(C)(C)C6)C4=O)c3CO)cn(C)c2=O)nc1` was tested. Which GI50 (U251 CNS) did it give?
A: 44.8 µM

Q: And the TGI (U251 CNS)?
A: > 100 µM

Q: And the GI50 (HL-60(TB) leukemia)?
A: 16.6 µM

Q: What about the TGI (HL-60(TB) leukemia) of the same molecule?
A: 47.2 µM

Q: What about the GI50 (CCRF-CEM leukemia) of the same molecule?
A: 21.4 µM

Q: And the TGI (CCRF-CEM leukemia)?
A: > 100 µM

Q: And the GI50 (UACC-257 melanoma)?
A: 27.6 µM

Q: And the TGI (UACC-257 melanoma)?
A: 58.1 µM

Q: What about the GI50 (HOP-62 NSCLC) of the same molecule?
A: 39.1 µM

Q: And the TGI (HOP-62 NSCLC)?
A: > 100 µM

Q: What about the GI50 (HCC-2998 colon) of the same molecule?
A: 49.9 µM

Q: What about the TGI (HCC-2998 colon) of the same molecule?
A: > 100 µM

Q: And the GI50 (SNB-19 CNS)?
A: 51.2 µM

Q: And the TGI (SNB-19 CNS)?
A: > 100 µM

Q: And the GI50 (TK-10 renal)?
A: 38.7 µM

Q: What about the TGI (TK-10 renal) of the same molecule?
A: > 100 µM

Q: And the GI50 (RXF 393 renal)?
A: 40.6 µM

Q: What about the TGI (RXF 393 renal) of the same molecule?
A: > 100 µM

Q: What about the GI50 (SK-MEL-5 melanoma) of the same molecule?
A: 31.2 µM

Q: And the TGI (SK-MEL-5 melanoma)?
A: > 100 µM

Q: And the GI50 (A498 renal)?
A: 10.3 µM

Q: What about the TGI (A498 renal) of the same molecule?
A: 33.9 µM

Q: What about the GI50 (HOP-92 NSCLC) of the same molecule?
A: 12.6 µM

Q: What about the TGI (HOP-92 NSCLC) of the same molecule?
A: 64.6 µM

Q: What about the GI50 (786-0 renal) of the same molecule?
A: 19.5 µM

Q: What about the TGI (786-0 renal) of the same molecule?
A: > 100 µM

Q: And the GI50 (MDA-MB-435)?
A: 26.4 µM

Q: What about the TGI (MDA-MB-435) of the same molecule?
A: > 100 µM

Q: What about the GI50 (MCF7 breast) of the same molecule?
A: 28.7 µM

Q: And the TGI (MCF7 breast)?
A: > 100 µM

Q: What about the GI50 (DU-145 prostate) of the same molecule?
A: 45.9 µM

Q: And the TGI (DU-145 prostate)?
A: > 100 µM

Q: And the GI50 (NCI/ADR-RES ovarian)?
A: 47.8 µM

Q: And the TGI (NCI/ADR-RES ovarian)?
A: > 100 µM

Q: What about the GI50 (SK-MEL-28 melanoma) of the same molecule?
A: 39.8 µM

Q: What about the TGI (SK-MEL-28 melanoma) of the same molecule?
A: > 100 µM

Q: What about the GI50 (UO-31 renal) of the same molecule?
A: 21.7 µM

Q: What about the TGI (UO-31 renal) of the same molecule?
A: > 100 µM

Q: What about the GI50 (T-47D breast) of the same molecule?
A: 19.2 µM

Q: What about the TGI (T-47D breast) of the same molecule?
A: > 100 µM

Q: What about the GI50 (MOLT-4 leukemia) of the same molecule?
A: 14.3 µM

Q: What about the TGI (MOLT-4 leukemia) of the same molecule?
A: > 100 µM

Q: And the GI50 (IGROV1 ovarian)?
A: 19.7 µM

Q: And the TGI (IGROV1 ovarian)?
A: > 100 µM

Q: And the GI50 (MDA-MB-231 breast)?
A: 26.1 µM

Q: And the TGI (MDA-MB-231 breast)?
A: > 100 µM

Q: And the GI50 (SK-MEL-2 melanoma)?
A: 74.2 µM

Q: And the TGI (SK-MEL-2 melanoma)?
A: > 100 µM

Q: What about the GI50 (MALME-3M melanoma) of the same molecule?
A: > 100 µM

Q: What about the TGI (MALME-3M melanoma) of the same molecule?
A: > 100 µM

Q: What about the GI50 (ACHN renal) of the same molecule?
A: 30.2 µM

Q: And the TGI (ACHN renal)?
A: > 100 µM

Q: What about the GI50 (LOX IMVI melanoma) of the same molecule?
A: 29.8 µM

Q: What about the TGI (LOX IMVI melanoma) of the same molecule?
A: > 100 µM

Q: And the GI50 (BT-549 breast)?
A: 17.7 µM

Q: What about the TGI (BT-549 breast) of the same molecule?
A: 55.1 µM

Q: What about the GI50 (HT29 colon) of the same molecule?
A: 23.8 µM

Q: What about the TGI (HT29 colon) of the same molecule?
A: > 100 µM

Q: And the GI50 (SN12C renal)?
A: 49.9 µM

Q: What about the TGI (SN12C renal) of the same molecule?
A: > 100 µM

Q: And the GI50 (NCI-H522 lung)?
A: 56.3 µM

Q: What about the TGI (NCI-H522 lung) of the same molecule?
A: > 100 µM

Q: What about the GI50 (NCI-H23 lung) of the same molecule?
A: > 100 µM

Q: What about the TGI (NCI-H23 lung) of the same molecule?
A: > 100 µM

Q: What about the GI50 (SW-620 colon) of the same molecule?
A: 47.8 µM

Q: What about the TGI (SW-620 colon) of the same molecule?
A: > 100 µM

Q: What about the GI50 (SF-539 CNS) of the same molecule?
A: 21.4 µM

Q: What about the TGI (SF-539 CNS) of the same molecule?
A: 66.9 µM

Q: And the GI50 (HS 578T breast)?
A: 27.7 µM

Q: What about the TGI (HS 578T breast) of the same molecule?
A: > 100 µM

Q: What about the GI50 (OVCAR-3 ovarian) of the same molecule?
A: 37.4 µM

Q: And the TGI (OVCAR-3 ovarian)?
A: > 100 µM

Q: What about the GI50 (RPMI-8226 leukemia) of the same molecule?
A: 13.1 µM

Q: And the TGI (RPMI-8226 leukemia)?
A: 60.7 µM

Q: And the GI50 (CAKI-1 renal)?
A: 27.9 µM

Q: What about the TGI (CAKI-1 renal) of the same molecule?
A: > 100 µM

Q: What about the GI50 (UACC-62 melanoma) of the same molecule?
A: 23.2 µM

Q: What about the TGI (UACC-62 melanoma) of the same molecule?
A: 82.3 µM

Q: And the GI50 (HCT-116 colon)?
A: 38.4 µM

Q: What about the TGI (HCT-116 colon) of the same molecule?
A: > 100 µM

Q: And the GI50 (SK-OV-3 ovarian)?
A: > 100 µM

Q: And the TGI (SK-OV-3 ovarian)?
A: > 100 µM

Q: What about the GI50 (COLO 205 colon) of the same molecule?
A: 27.1 µM

Q: And the TGI (COLO 205 colon)?
A: > 100 µM

Q: What about the GI50 (OVCAR-8 ovarian) of the same molecule?
A: 54.3 µM

Q: And the TGI (OVCAR-8 ovarian)?
A: > 100 µM

Q: And the GI50 (NCI-H460 lung)?
A: 61.1 µM

Q: And the TGI (NCI-H460 lung)?
A: > 100 µM

Q: And the GI50 (OVCAR-5 ovarian)?
A: 73 µM

Q: And the TGI (OVCAR-5 ovarian)?
A: > 100 µM

Q: What about the GI50 (SF-268 CNS) of the same molecule?
A: 29.5 µM

Q: And the TGI (SF-268 CNS)?
A: > 100 µM

Q: And the GI50 (SF-295 CNS)?
A: 68.6 µM

Q: What about the TGI (SF-295 CNS) of the same molecule?
A: > 100 µM

Q: And the GI50 (EKVX NSCLC)?
A: > 100 µM

Q: And the TGI (EKVX NSCLC)?
A: > 100 µM

Q: What about the GI50 (KM12 colon) of the same molecule?
A: 56.8 µM

Q: What about the TGI (KM12 colon) of the same molecule?
A: > 100 µM

Q: What about the GI50 (OVCAR-4 ovarian) of the same molecule?
A: 22.4 µM

Q: And the TGI (OVCAR-4 ovarian)?
A: > 100 µM

Q: What about the GI50 (SR leukemia) of the same molecule?
A: 23.1 µM

Q: And the TGI (SR leukemia)?
A: > 100 µM

Q: And the GI50 (HCT-15 colon)?
A: 47 µM

Q: What about the TGI (HCT-15 colon) of the same molecule?
A: > 100 µM

Q: What about the GI50 (PC-3 prostate) of the same molecule?
A: 36.6 µM

Q: What about the TGI (PC-3 prostate) of the same molecule?
A: > 100 µM

Q: And the GI50 (SNB-75 CNS)?
A: 15.5 µM

Q: What about the TGI (SNB-75 CNS) of the same molecule?
A: > 100 µM

Q: And the GI50 (NCI-H226 lung)?
A: 19.6 µM

Q: What about the TGI (NCI-H226 lung) of the same molecule?
A: 46.5 µM

Q: And the GI50 (A549 NSCLC)?
A: 56.8 µM

Q: And the TGI (A549 NSCLC)?
A: > 100 µM
